# Results published in PubChem BioAssay (NCI).
#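 Values below derive from 48-hour exposures of cells grown in 96-well plates, with endpoints linearly interpolated between the two concentrations bracketing the appropriate inhibition level. Abbreviation: GI50, concentration required for 50% inhibition of growth. TGI: total growth inhibition.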
# Assays:
# Assay in all cases: DTP human tumour cell line panel, 48 h
# [1] = tested on: NCI-H226 lung
# [2] = tested on: SR leukemia
# [3] = tested on: BT-549 breast
# [4] = tested on: DU-145 prostate
# [5] = tested on: UACC-62 melanoma
# [6] = tested on: SNB-19 CNS
# [7] = tested on: UACC-257 melanoma
# [8] = tested on: COLO 205 colon
# [9] = tested on: HCC-2998 colon
# [10] = tested on: KM12 colon
SMILES,GI50 [1] [µM],TGI [1] [µM],GI50 [2] [µM],TGI [2] [µM],GI50 [3] [µM],TGI [3] [µM],GI50 [4] [µM],TGI [4] [µM],GI50 [5] [µM],TGI [5] [µM],GI50 [6] [µM],TGI [6] [µM],GI50 [7] [µM],TGI [7] [µM],GI50 [8] [µM],TGI [8] [µM],GI50 [9] [µM],GI50 [10] [µM],TGI [10] [µM],TGI [9] [µM]
Nc1ccc(CC[C@H]2CCC/C=C/[C@@H]3C[C@H](O)C[C@H]3[C@H](O)/C=C/C(=O)O2)cc1,0.0226,0.0704,0.0348,7.51,0.0381,16.1,0.107,> 100,0.0488,14.1,0.0504,> 100,0.0565,37.1,0.0188,0.034,0.0266,0.0235,0.0615,–
CC1(C)N=C(N)N=C(N)N1c1ccc(CCCC(=O)Nc2ccc(S(=O)(=O)F)cc2)cc1,63.1,> 100,1.53,> 100,22.8,> 100,6.98,> 100,2.24,> 100,36.5,> 100,24.8,> 100,5.59,> 100,14.5,3.54,> 100,> 100
CC[C@H](C)[C@H](NC(=O)C12C3C4C1C1C2C3C41NC)C(=O)N(C)[C@H](C[C@@H](OC(C)=O)c1nc(C(=O)N[C@@H](Cc2ccccc2)C[C@H](C)C(=O)OC)cs1)C(C)C (some centres undefined),> 7.85,> 14.3,0.0469,> 14.3,0.214,3.51,0.446,> 14.3,0.118,> 14.3,0.701,> 14.3,0.655,> 14.3,0.402,2.51,0.369,0.517,> 14.3,> 14.3
COc1cccc(C2CC(=O)Nc3c2c(C)nn3-c2nc3ccccc3[nH]2)c1OC (centres undefined),3.36,15.9,4.22,> 40.9,5.52,42.2,8.68,> 89.4,2.52,7.86,4.07,> 100,5.77,39.8,5.72,20.1,18.1,4.17,19.8,> 79.8
Clc1ccc2c(NCCNc3nc(N4CCOCC4)nc4ccccc34)ccnc2c1,1.68,3.57,0.313,2.03,2.07,4.69,4.99,17,1.94,3.75,2.59,8.78,2.07,4.33,2.02,4.46,2.67,2.66,8.16,6.54
Cc1ccc(-c2nc(NCCOCCOCCN)nc(N3CCN(c4ccccn4)CC3)n2)cc1,17.4,34.3,5.5,20.7,14.1,29.2,16.6,31.1,5.99,13.7,16.9,34.9,6.85,15.5,6.89,14.2,8.01,16.6,32.9,21.9
COc1cccc(/C=C2\N=C(c3ccccc3)OC2=O)c1,–,> 100,–,65.2,–,> 100,–,> 100,–,> 100,–,> 100,–,> 100,–,> 100,–,–,> 100,> 100
C=C1C(=O)OC2CC(C)C(/C=C/C(C)=O)=CCC12 (centres undefined),–,> 100,–,> 100,–,> 100,–,> 100,–,> 100,–,> 100,–,> 100,–,> 100,–,–,> 100,> 100
CC(=O)c1cc2c(N)c(C(=O)Nc3cccc4ccccc34)sc2nc1C,21.6,> 50,1.21,> 50,4.03,> 50,1.71,36.1,1.12,> 50,1.78,> 50,18,> 50,1.12,3.2,2.29,1.89,> 50,> 50
N[C@@H]1CCCN(c2c(Br)cnc3[nH]cc(NC(=O)C4CC4)c23)C1,11,> 94.6,0.112,> 100,0.45,38,0.459,> 100,0.464,> 100,0.692,> 100,–,> 100,2.27,59,0.399,0.67,> 100,> 100
Nc1cccc(-c2cc(=O)c3cc4c(cc3[nH]2)OCO4)c1,–,> 30.4,–,> 100,–,> 100,–,> 100,–,11.5,–,> 48.5,–,> 100,–,5.93,–,–,> 21.6,26.5
CC1(C)CC(O)CC(C)(C)N1O,> 100,> 100,–,> 100,–,> 100,–,> 100,–,> 100,–,> 100,–,> 100,–,> 100,–,–,> 100,> 100
Cn1c(=O)c(-c2ccccc2Cl)cc2cnc(NC3CCOCC3)nc21,12.3,> 25,8.3,> 25,> 25,> 25,12.3,> 25,6.37,> 25,> 25,> 25,14.8,> 25,9.61,> 25,> 21.8,21.1,> 25,> 25
